According to patent US6689750B1, “Bactericide compositions prepared and obtained from microccus varians” (priority 1995, dated 2004):

What was measured:
[1] = test system: strain of Lactococcus lactis which produces lacticin 481; assay: Inhibition spectrum test on the lacticin 481 producer; assay type: cell-based
Description: When the strain of Lactococcus lactis which produces lacticin 481 is inoculated in the presence of a […] extract, as previously described in the inhibition spectrum test, the growth of the said strain is seen to be inhibited. The strain of Lactococcus lactis which produces lacticin 481 is immune to its own bacteriocin, lacticin 481, but is not immune to the […] produced by either of the two Micrococcus varians strains according to the present invention.

Gram-negative bacteria = assay: Inhibition spectrum, agar well test, summary; assay type: cell-based; details: Table V
Description: The inhibition spectrum of the supernatant is thus determined.

[2] = test system: Lactobacillus helveticus (N 2); assay: Inactivation by enzymes, agar well test; assay type: physicochemical; details: two indicator strains

| Substance | growth of the lacticin 481 producing strain [1] | inhibitory effect on the growth of Gram-negative bacteria (Gram-negative bacteria) | influence of catalase on bactericidal activity [2] |
| --- | --- | --- | --- |
| lacticin 481 | immune | – | – |
| variacin: bacteriocin from Micrococcus varians strains CNCM I-1586 and CNCM I-1587, amino acid sequence SEQ ID NO:1 (GSGVIPTISHECHMNSFQFVFTCCS) | – | does not exert any inhibitory effect | not found to exert any influence |
